Test results published in patent US9938301B2, “Dihydropyrimido fused ring derivative as HBV inhibitor” (QILU PHARMACEUTICAL CO., LTD., priority 2014, dated 2018).
Read-outs that look alike come from different tables or passages of the source.

System: HBV DNA in HepG2.2.15 cells
Assay: HBV in vitro assay quantitive qPCR test
Assay type: cell-based
Conditions: Hepatitis B virus
Protocol: • 1 Purpose of the test: • The content of HBV DNA in HepG2.2.15 cells was detected by real time quantitive qPCR test to evaluate an inhibitory action of the compound on HBV with an EC50 value of the compound as an indicator. • 2 Experimental materials: • 2.1 Cell lines: HepG2.2.15 Cells • HepG2.2.15 cell culture media (DMEM/F12, Invitrogen-11330057; 10% serum, Invitrogen-10099141; 100 units/ml Penicillin and 10 μg/ml Streptomycin, Invitrogen-15140122; 1% non-essential amino acid, Invitrogen-1140076; 2 mM L-GLUTAMINE, Invitrogen-25030081; 300 μg/ml Geneticin, Invitrogen-10131027 • 2.2 Reagents: • trypsin (Invitrogen-25300062) • DPBS (Hyclone-SH30028.01B) • DMSO (Sigma-D2650-100ML) • High-Throughput DNA Purification Kit (QIAamp 96 DNA Blood Kit, Qiagen-51162) • Quantitative Fast Start Universal Probe Reagent (FastStart Universal Probe Master, Roche-04914058001) • 2.3 Materials and Instruments: • 96-well cell culture plate (Corning-3599) • CO2 Incubator (HERA-CELL-240) • Optical Sealing Membrane (ABI-4311971) • Quantitative PCR 96-well Plate (Applied Biosystems-4306737) • Fluorescent Quantitative PCR Instrument (Applied Biosystems-7500 real time PCR system) • 3. Testing steps and Methods: • 3.1 HepG2.2.15 cells (4×10^4 cells/well) were planted into a 96-well plate, and at 37° C., 5% CO2 cultured overnight. • 3.2 On Day 2, the compounds were diluted in totally 8 concentrations with a dilution gradient of three times. The compounds at different concentrations were added into the culture wells in duplicate. The final concentration of DMSO in the culture media was 1%. 1 μM GLS4 was used as 100% inhibition control; 1% DMSO as 0% inhibition control. • 3.3 On Day 5, replacing with the fresh culture media containing the compound was performed. • 3.4 On Day 8, the culture media in the culture wells was collected, and DNA was extracted with a High-Throughput DNA Purification Kit (Qiagen-51162), See Specification of the product for specific steps. • 3.5 Preparation of PCR Reaction Mixture was shown in Table 1:
• 3.6 To each well of a 96-well PCR plate was added 15 μl reaction mixture, and then to each well was added 10 μl sample DNA or HBV DNA standard. • 3.7 The reaction conditions of PCR were: heating at 95° C. for 10 minutes; then at 95° C. denaturing for 15 seconds, and at 60° C. extending for 1 minute, totally 40 cycles. • 3.8 Data Analysis: • 3.8.1 The inhibition percentage was calculated: % Inh.=[1−(DNA copy number in sample−DNA copy number in 1 μM GLS4)/(DNA copy number in DMSO control−DNA copy number in 1 μM GLS4)]×100. • 3.8.2 Calculating EC50: the concentration of the compound for 50% inhibition of HBV (EC50) was calculated by using GraphPad Prism Software. • 4 Testing Results • The testing results were shown in Table 3: […]

[1] = qPCR assay, HepG2.2.15 cells, read-out: Concentration for 50% inhibition of HBV (EC50)value
[2] = summary list of target compounds, Examples 166-220 (values of Table 3), HepG2.2.15 cells, read-out: BIOACTIVITY (inhibitory actions on HBV DNA, EC50)
[3] = HepG2.2.15, read-out: BIOACTIVITY (inhibitory actions on HBV DNA, EC50)
[4] = HepG2.2.15, read-out: Concentration for 50% inhibition of HBV (EC50)value

Row | SMILES | EC50 [1] | EC50 [2] | EC50 [3] | EC50 [4]
1 | COC(=O)C1=C2C[C@H](NS(=O)(=O)O)CN2C(c2nccs2)=N[C@H]1c1ccc(F)cc1Cl [Example 175] | 1000 to 5000 nM | 1000 to 5000 nM |  | 
2 | CCOC(=O)C1=C2CN(CCO)S(=O)(=O)CN2C(c2nccs2)=N[C@H]1c1ccc(F)cc1Cl [Example 176] | 1000 to 5000 nM | 1000 to 5000 nM |  | 
3 | COC(=O)C1=C2C[C@H](NS(C)(=O)=O)CN2C(c2nccs2)=N[C@H]1c1sccc1Cl [Example 177] |  |  | < 100 nM | < 100 nM
4 | COC(=O)C1=C2C[C@@H](NS(C)(=O)=O)CN2C(c2nccs2)=N[C@@H]1c1ccc(F)cc1Cl [Example 178] | 100 to 500 nM | 100 to 500 nM |  | 
5 | COC(=O)C1=C2C[C@H](N(CC(F)F)S(C)(=O)=O)CN2C(c2nccs2)=N[C@H]1c1ccc(F)cc1Cl [Example 179] | 100 to 500 nM | 100 to 500 nM |  | 
6 | COC(=O)C1=C2C[C@H](NS(C)(=O)=O)CN2C(c2nccs2)=N[C@H]1c1ccc(F)cc1C [Example 180] | < 100 nM | < 100 nM |  | 
7 | COC(=O)C1=C2C[C@@H](NS(C)(=O)=O)CN2C(c2nccs2)=N[C@H]1c1ccc(F)cc1Cl [Example 181] | < 100 nM | < 100 nM |  | 
8 | COC(=O)C1=C2C[C@H](N(CC#N)S(C)(=O)=O)CN2C(c2nccs2)=N[C@H]1c1ccc(F)cc1Cl [Example 182] | < 100 nM | < 100 nM |  | 
9 | CCN([C@H]1CC2=C(C(=O)OC)[C@H](c3ccc(F)cc3Cl)N=C(c3nccs3)N2C1)S(C)(=O)=O [Example 183] | < 100 nM | < 100 nM |  | 
10 | COC(=O)C1=C2C[C@H](N(C(C)C)S(C)(=O)=O)CN2C(c2nccs2)=N[C@H]1c1ccc(F)cc1Cl [Example 184] | 100 to 500 nM | 100 to 500 nM |  | 
11 | COC(=O)C1=C2C[C@H](NS(=O)(=O)OC)CN2C(c2nccs2)=N[C@H]1c1ccc(F)cc1Cl [Example 185] | < 100 nM | < 100 nM |  | 
12 | COC(=O)C1=C2C[C@H](N(CC(=O)O)S(C)(=O)=O)CN2C(c2nccs2)=N[C@H]1c1ccc(F)cc1Cl [Example 186] | 1000 to 5000 nM | 1000 to 5000 nM |  | 
13 | COC(=O)C1=C2C[C@H](N3CCCS3(=O)=O)CN2C(c2nccs2)=N[C@H]1c1ccc(F)cc1Cl [Example 187] | < 100 nM | < 100 nM |  | 
14 | COC(=O)C1=C2C[C@H](N(CCO)S(C)(=O)=O)CN2C(c2nccs2)=N[C@H]1c1ccc(F)cc1Cl [Example 188] | < 100 nM | < 100 nM |  | 
15 | COC(=O)C1=C2C[C@H](NS(=O)(=O)c3ccccc3)CN2C(c2nccs2)=N[C@H]1c1ccc(F)cc1Cl [Example 189] | < 100 nM | < 100 nM |  | 
16 | COC(=O)C1=C2C[C@H](NP(=O)(OC)OC)CN2C(c2nccs2)=N[C@H]1c1ccc(F)cc1Cl [Example 190] |  |  | 100 to 500 nM | 100 to 500 nM
17 | COC(=O)C1=C2C[C@H](NS(C)(=O)=O)CN2C(c2ncc(F)cc2F)=N[C@H]1c1ccc(F)cc1Cl [Example 191] | < 100 nM | < 100 nM |  | 
18 | COC(=O)C1=C2C[C@H](N(C)S(N)(=O)=O)CN2C(c2nccs2)=N[C@H]1c1ccc(F)cc1Cl [Example 192] | < 100 nM | < 100 nM |  | 
19 | COC(=O)C1=C2C[C@H](NS(N)(=O)=O)CN2C(c2nccs2)=N[C@H]1c1ccc(F)c(F)c1F [Example 193] | < 100 nM | < 100 nM |  | 
20 | COC(=O)C1=C2C[C@H](NS(C)(=O)=O)CN2C(c2nccs2)=N[C@H]1c1ccc(F)cn1 [Example 194] | 1000 to 5000 nM | 1000 to 5000 nM |  | 
21 | [H]/N=C(\N)N[C@H]1CC2=C(C(=O)OC)[C@H](c3ccc(F)cc3Cl)N=C(c3nccs3)N2C1 [Example 195] | 1000 to 5000 nM | 1000 to 5000 nM |  | 
22 | COC(=O)C1=C2C[C@H](N(O)S(C)(=O)=O)CN2C(c2nccs2)=N[C@H]1c1ccc(F)cc1Cl [Example 196] | 1000 to 5000 nM | 1000 to 5000 nM |  | 

Row | SMILES | EC50 [1] | EC50 [2] | EC50 [3] | EC50 [4]
23 | COC(=O)C1=C2C[C@H](NS(N)(=O)=O)CN2C(c2nccs2)=N[C@@H]1c1ccc(F)c(F)c1Cl [Example 197] | 1000 to 5000 nM | 1000 to 5000 nM |  | 
24 | COC(=O)C1=C2C[C@H](NS(N)(=O)=O)CN2C(c2nccs2)=N[C@H]1c1ccc(F)c(F)c1Cl [Example 198] | < 100 nM | < 100 nM |  | 
25 | COC(=O)C1=C2C[C@H](NS(=O)(=O)c3cccnc3)CN2C(c2nccs2)=N[C@H]1c1ccc(F)cc1Cl [Example 199] | < 100 nM | < 100 nM |  | 
26 | COC(=O)C1=C2C[C@H](NS(=O)(=O)c3ccccn3)CN2C(c2nccs2)=N[C@H]1c1ccc(F)cc1Cl [Example 200] | < 100 nM | < 100 nM |  | 
27 | COC(=O)C1=C2C[C@H](NS(C)(=O)=O)CN2C(c2nccs2)=N[C@H]1c1ccc(F)c(F)c1Cl [Example 201] | < 100 nM | < 100 nM |  | 
28 | COC(=O)C1=C2C[C@H](NS(C)(=O)=O)CN2C(c2ncc(C)s2)=N[C@H]1c1ccc(F)cc1Cl [Example 202] | 100 to 500 nM | 100 to 500 nM |  | 
29 | COC(=O)C1=C2C[C@H](NS(C)(=O)=O)CN2C(c2nccs2)=N[C@H]1c1ccc(F)cc1C(F)(F)F [Example 203] | 100 to 500 nM | 100 to 500 nM |  | 
30 | COC(=O)C1=C2C[C@H](NS(=O)(=O)c3ccccc3F)CN2C(c2nccs2)=N[C@H]1c1ccc(F)cc1Cl [Example 204] | < 100 nM | < 100 nM |  | 
31 | COC(=O)C1=C2C[C@H](NS(C)(=O)=O)CN2C(c2nccs2)=N[C@H]1c1ccc(F)cc1F [Example 205] | < 100 nM | < 100 nM |  | 
32 | CNS(=O)(=O)N[C@H]1CC2=C(C(=O)OC)[C@H](c3ccc(F)c(F)c3F)N=C(c3nccs3)N2C1 [Example 206] | < 100 nM | < 100 nM |  | 
33 | COC(=O)C1=C2C[C@H](NS(=O)(=O)N(C)C)CN2C(c2nccs2)=N[C@H]1c1ccc(F)c(F)c1F [Example 207] | < 100 nM | < 100 nM |  | 
34 | COC(=O)C1=C2C[C@H](NS(=O)(=O)N3CCCC3)CN2C(c2nccs2)=N[C@H]1c1ccc(F)c(F)c1F [Example 208] | < 100 nM | < 100 nM |  | 
35 | COC(=O)C1=C2C[C@H](NS(=O)(=O)NC(C)C)CN2C(c2nccs2)=N[C@H]1c1ccc(F)c(F)c1F [Example 209] | < 100 nM | < 100 nM |  | 
36 | COC(=O)C1=C2C[C@H](NS(=O)(=O)NC(C)(C)C)CN2C(c2nccs2)=N[C@H]1c1ccc(F)c(F)c1F [Example 210] | < 100 nM | < 100 nM |  | 
37 | COC(=O)C1=C2C[C@H](NS(=O)(=O)N3CCC3)CN2C(c2nccs2)=N[C@H]1c1ccc(F)c(F)c1F [Example 212] | 100 to 500 nM | 100 to 500 nM |  | 
38 | CCS(=O)(=O)N[C@H]1CC2=C(C(=O)OC)[C@H](c3cccc(F)c3Cl)N=C(c3nccs3)N2C1 [Example 213] | < 100 nM | < 100 nM |  | 
39 | CCCCNS(=O)(=O)N[C@H]1CC2=C(C(=O)OC)[C@H](c3ccc(F)c(F)c3F)N=C(c3nccs3)N2C1 [Example 214] | < 100 nM | < 100 nM |  | 
40 | COC(=O)C1=C2C[C@H](NS(=O)(=O)N(C)C)CN2C(c2nccs2)=N[C@H]1c1cccc(F)c1Cl [Example 215] | < 100 nM | < 100 nM |  | 
41 | COC(=O)C1=C2C[C@H](NS(=O)(=O)NC(C)C)CN2C(c2nccs2)=N[C@H]1c1cccc(F)c1Cl [Example 216] | < 100 nM | < 100 nM |  | 
42 | COC(=O)C1=C2C[C@H](NC(=O)OC(C)(C)C)CN2C(c2nccs2)=N[C@H]1c1cccc(F)c1Cl [Example 217] | < 100 nM | 1000 to 5000 nM |  | 
43 | COC(=O)C1=C2C[C@H](NS(N)(=O)=O)CN2C(c2nccs2)=N[C@H]1c1cccc(F)c1Cl [Example 218] | < 100 nM | < 100 nM |  | 
44 | COC(=O)C1=C2C[C@H](NS(N)(=O)=O)CN2C(c2ncc(F)cc2F)=N[C@H]1c1ccc(F)c(F)c1F [Example 219] | 100 to 500 nM | 100 to 500 nM |  | 
